Data published in US12454678B2, “Muscle differentiation-promoting actions of ergothioneine, ascorbic acid 2-glucoside, ascorbic acid, and combination thereof” (NAGASE & CO., LTD., priority 2018, dated 2025).

Assays:
Format in all cases: cell-based
[1] = tested on: MyH2 mRNA expression in C2C12 cells; assay: MyH2 mRNA expression level of C2C12 cells (real time PCR, corrected by PPIA); settings: for MyH2 mRNA expression: procedure of Example 3, vs NT
Method: (§1) C2C12 cells were suspended in a growth medium to adjust the cell density to 65×10^4 cells/ml. Then, 1.5 ml of the cell suspension was added to each well of a 6-well plate, and the cells were cultured in a 5% CO2 incubator for 24 hours. The growth medium was removed, and 2 ml of a differentiation medium containing 0.5 mM EGT was added. A control group (NT) was subjected to the exactly same operation except that EGT was not contained. The culture medium was removed after 2 days, 1 ml of TRIzol (Invitrogen Corporation) was added to each well, and RNA was collected according to the protocol of TRIzol. The collected RNA was converted into complementary strand DNA with a reverse transcription kit (Takara Bio Inc.). The following primer DNAs (MyH2 [NM_001039545]: forward 5′[…]3′ (SEQ ID NO: 5), reverse 5′[…]3′ (SEQ ID NO: 6), ACTA1 [NM_001272041]: forward 5′[…]3′ (SEQ ID NO: 7), PPIA [NM_008907]: forward 5′[…]3′ (SEQ ID NO: 3), and reverse 5′[…]3′ (SEQ ID NO: 4)) were added to the obtained complementary strand DNA, and the gene expression levels of MyH2, ACTA1, and PPIA were measured by subjecting the mixture to a CFX96 Touch™ real time PCR analysis system (Bio-Rad Laboratories, Inc.) using TB Green™ Premix Ex Tag™ II (Takara Bio Inc.) according to the protocol thereof. Correction was performed by dividing the amounts of expressed MyH2 and ACTA1 mRNA by the amount of expressed PPIA mRNA to calculate the myosin heavy chain 2 (MyH2) and a actin (ACTA1) mRNA expression levels. […] The MyH2 mRNA and ACTA1 mRNA expression levels increased by adding EGT.
C2C12 cells were suspended in a growth medium to adjust the cell density to 65×10^4 cells/ml. Then, 1.5 ml of the cell suspension was added to each well of a 6-well plate, and the cells were cultured in a 5% CO2 incubator for 24 hours. The growth medium was removed, and 2 ml of a differentiation medium containing 0.5 mM EGT, 25 μM edaravone (hereinafter, abbreviated to Edv), or 50 μM Edv was added to each well. Edv is a powerful synthetic antioxidant. The culture medium was exchanged for a new culture medium every other day, and the culture was continued. A control group (NT) was subjected to the exactly same operation except that EGT was not contained. The culture medium was removed after 4 days, 1 ml of TRIzol (Invitrogen Corporation) was added to each well, and RNA was collected according to the protocol of TRIzol. The complementary strand DNA of the mRNA was obtained by treating the collected RNA with a reverse transcription kit (Takara Bio Inc.). The following primer DNAs (MyH2 [NM_001039545]: forward 5′[…]3′ (SEQ ID NO: 5), reverse 5′[…]3′ (SEQ ID NO: 6), PPIA [NM_008907]: forward 5′[…]3′ (SEQ ID NO: 3), and reverse 5′[…]3′ (SEQ ID NO: 4)) were added to the obtained complementary strand DNA, and the gene expression levels of MyH2 and PPIA were measured by subjecting the mixture to a CFX96 Touch™ real time PCR analysis system (Bio-Rad Laboratories, Inc.) using TB Green™ Premix Ex Tag™ II Kit (Takara Bio Inc.) according to the protocol thereof. Correction was performed by dividing the amount of expressed MyH2 mRNA by the amount of expressed PPIA mRNA to calculate the MyH2 mRNA expression level.
(§2) The amounts of MyH2 and ACTA1 mRNA expression of C2C12 cells when the differentiation medium containing only EGT was used, when the differentiation medium containing EGT and AG was used, and when the differentiation medium containing only AG was used were investigated. AA2G(R) produced by Hayashibara Co., Ltd. was used as AG. […]

[2] = tested on: ACTA1 mRNA expression in C2C12 cells; assay: ACTA1 mRNA expression level of C2C12 cells (real time PCR, corrected by PPIA); settings: for ACTA1 mRNA expression: procedure of Example 3, vs NT
Method: as §1
as §2, with “AG. The concentration of EGT in the differentiation medium was 0.5 mM, and the concentration of AG was 1.0 mM. The experiment procedure was the same as that of Example 3.” for “AG.”

C2C12 cells = assay: Microscopic observation of muscle differentiation of C2C12 cells in differentiation medium; settings: 0.5 mM EGT in differentiation medium, sixth day, vs control without EGT
Method: C2C12 cells were suspended in a 10% fetal calf serum-containing Dulbecco's modified Eagle's medium (hereinafter, called a growth medium) to adjust the cell density to 65×10^4 cells/ml. Then, 1.5 ml of the cell suspension was added to each well of a 6-well plate, and the cells were cultured in a 5% CO2 incubator for 24 hours. The growth medium was removed, and 2 ml of 2% horse serum-containing Dulbecco's modified Eagle's medium containing 0.5 mM EGT (hereinafter, called a differentiation medium) was then added to each well. The differentiation medium was exchanged for a new culture medium every other day, and the culture was continued. A control group was subjected to the exactly same operation except that EGT was not contained. The forms of the cells were observed and photographed through a microscope (NIKON CORPORATION: Eclipse Ts2) on the sixth day after exchange for the differentiation medium.

[3] = tested on: MyoD mRNA expression in C2C12 cells; assay: MyoD mRNA expression level of C2C12 cells (real time PCR, corrected by PPIA); settings: 0.1 mM or 0.5 mM EGT, after 2 days
Method: C2C12 cells were suspended in a growth medium to adjust the cell density to 65×10^4 cells/ml. Then, 1.5 ml of the cell suspension was added to each well of a 6-well plate, and the cells were cultured in a 5% CO2 incubator for 24 hours. The growth medium was removed, and 2 ml of a differentiation medium containing 0.1 mM or 0.5 mM EGT was then added to each well. A control group (hereinafter abbreviated to NT) was subjected to the exactly same operation except that EGT was not contained. The culture medium was removed after 2 days, 1 ml of TRIzol (Invitrogen Corporation) was added to each well, and the cells were dissolved. The cell solution was collected in an Eppendorf tube, and RNA was collected according to the protocol of TRIzol. The complementary strand DNA of the mRNA was obtained by treating the collected RNA with a reverse transcription kit (Takara Bio Inc.). The following primer DNAs (MyoD [NM_010866]: forward 5[…]3′ (SEQ ID NO: 1), reverse 5′[…]3′ (SEQ ID NO: 2), PPIA [NM_008907]: forward 5′[…]3′ (SEQ ID NO: 3), and reverse 5′[…]3′ (SEQ ID NO: 4)) were added to the obtained complementary strand DNA, and the gene expression levels of MyoD and PPIA were measured by subjecting the mixture to a CFX96 Touch™ real time PCR analysis system (Bio-Rad Laboratories, Inc.) using TB Green™ Premix Ex Taq™ II (Takara Bio Inc.) according to the protocol thereof. […]

With `O=C1O[C@H]([C@@H](O)CO)C(O)=C1O[C@H]1O[C@H](CO)[C@@H](O)[C@H](O)[C@H]1O` [AG, ascorbic acid 2-glucoside] the “MyH2 mRNA expression” value ([1]; only AG, 1.0 mM) was “increased” and the “ACTA1 mRNA expression” value ([2]; only AG, 1.0 mM) was “increased”.
`C[N+](C)(C)[C@@H](Cc1c[nH]c(=S)[nH]1)C(=O)[O-]` [EGT, Ergothioneine] was tested, and the “differentiation from C2C12 cells to muscle cells / myotube cell formation” value (C2C12 cells) was “more myotube cells were formed”, the “MyoD mRNA expression level (relative to NT = 1)” value [3] was “increased depending on the concentration of EGT” and the “MyH2 mRNA expression level (relative to NT = 1)” value ([1]; 0.5 mM EGT, after 2 days) was “increased”. For the same compound, the “ACTA1 mRNA expression level (relative to NT = 1)” value ([2]; 0.5 mM EGT, after 2 days) was “increased”.
For `CC1=NN(c2ccccc2)C(=O)C1` [Edv, edaravone, reference compound], the “MyH2 mRNA expression level (relative to NT = 1)” value ([1]; 25 μM or 50 μM Edv, after 4 days) was “did not affect” and the “MyH2 mRNA expression level (relative to NT = 1)” value ([1]; 25 μM or 50 μM Edv, after 4 days, listed as edaravone) was “does not influence”.
With `O=C1O[C@H]([C@@H](O)CO)C(O)=C1O` [VC, ascorbic acid] the “MyH2 mRNA expression” value ([1]; only VC, 0.5 mM) was “increased” and the “ACTA1 mRNA expression” value ([2]; only VC, 0.5 mM) was “increased”.
